Measured values as given in paper PMC11788587, “Validating Low‐Dose Iohexol as a Marker for Glomerular Filtration Rate by In Vitro and In Vivo Studies” (Clinical and Translational Science, 2025).

Target: T1, hOAT3 (Homo sapiens, UniProt Q8TCC7)
T1 construct: expressed in transfected cells; host or cells: HEK-293 (293) cells, pEBTetD plasmid, doxycycline-induced
T1 sequence (Q8TCC7 1-542): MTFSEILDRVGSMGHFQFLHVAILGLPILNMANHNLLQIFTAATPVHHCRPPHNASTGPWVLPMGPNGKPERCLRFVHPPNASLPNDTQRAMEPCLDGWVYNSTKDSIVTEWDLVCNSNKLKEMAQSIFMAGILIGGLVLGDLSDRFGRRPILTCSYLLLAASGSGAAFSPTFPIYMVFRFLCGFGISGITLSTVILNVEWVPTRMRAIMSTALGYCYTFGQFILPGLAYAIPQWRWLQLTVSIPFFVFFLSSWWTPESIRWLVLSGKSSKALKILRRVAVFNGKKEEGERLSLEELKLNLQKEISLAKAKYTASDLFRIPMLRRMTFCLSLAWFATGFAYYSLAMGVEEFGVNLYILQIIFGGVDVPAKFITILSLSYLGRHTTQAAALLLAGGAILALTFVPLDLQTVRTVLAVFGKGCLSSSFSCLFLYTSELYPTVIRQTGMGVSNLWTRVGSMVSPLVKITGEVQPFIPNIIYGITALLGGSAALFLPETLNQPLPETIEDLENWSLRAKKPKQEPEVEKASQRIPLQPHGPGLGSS
Test: Substrate assessment: iohexol uptake in 293 cells expressing hOAT3 vs control
Format: in vitro ADME
Conditions: 10 μM iohexol, median (95% CI)
Excerpt: We characterized the inhibitory potential of iohexol on major drug transporters recommended by regulatory agencies, which were previously assessed in a clinical transporter phenotyping cocktail study. These transporters include hOAT1, hOAT3, hOCT1, hOCT2, hMATE1, hMATE2K, human organic anion transporter polypeptides (hOATP)1B1, hOATP1B3, and human multidrug resistance protein (hMDR)1. Additionally, we investigated whether iohexol is a substrate for any of the renal transporters among these, including hOAT1/3, hOCT1/2, and hMATE1/2K. Cell‐based uptake assays were used to assess the activities of hOAT1/3, hOCT1/2, hMATE1/2K, and hOATP1B1/1B3. Inside‐out membrane vesicle uptake assays were used to evaluate the activity of hMDR1.
For substrate assessments, iohexol was incubated with stably transfected HEK‐293 cells expressing one of the following transporters: hOAT1, hOAT3, hOCT1, hOCT2, hMATE1, or hMATE2K, as well as with control cells lacking transporter expression. Stably transfected cell lines containing pEBTetD plasmids with wild‐type human transporter cDNAs were generated as previously described. Transporter expression was induced by adding 1 μg/mL doxycycline to the growth medium for at least 20 h. Iohexol would be considered a substrate for these transporters if: (1) the ratio of iohexol uptake in cells expressing the transporter to that in control cells was ≥ 2, and (2) a known inhibitor of the transporter reduced iohexol uptake to ≤ 50% at concentrations ≥ 10 times its inhibition constant or half‐maximal inhibitory concentration.
Uptake assays were performed using stably transfected 293 cells, with or without the expression of one of the following transporters: hOAT1, hOAT3, hOCT1, hOCT2, hMATE1, or hMATE2K, as previously described.^1
For the substrate assessment, cells were incubated with 10 µM iohexol for 10 minutes and 30 minutes for each transporter. Inhibition assays were performed using specific standard substrates for each transporter: 10 µM para-aminohippuric acid (PAH) for hOAT1, 3 µM estrone-3-sulfate (E3S) for hOAT3, 50 µM metformin for hOCT1, 5 µM metformin for hOCT2, and 3 µM 1-methyl-4-phenylpyridinium (MPP+) for hMATE1 and hMATE2K. […]
R version 4.2.1 (R Foundation for Statistical Computing, Vienna, Austria) was used for statistical evaluations and data visualization. The data analysis approach for the in vitro study was detailed by Hsin CH et al..^1 In brief, for transport assays, the initial uptake rate was calculated by normalizing the substrate concentration to both the protein concentration and the incubation time for each dish or well. The transporter-mediated uptake rate (net uptake) was determined by performing an element-wise subtraction of uptake rates from different conditions. […]

## CC(=O)N(CC(O)CO)c1c(I)c(C(=O)NCC(O)CO)c(I)c(C(=O)NCC(O)CO)c1I (stereo not shown) [iohexol]
10 minutes
  Differences in intracellular accumulation (expression on minus off): 0.6 (0.1 to 2) pmol/mg protein
  Uptake ratio (transporter-expressing vs non-expressing cells): 1.1 (1 to 1.4)
30 minutes
  Differences in intracellular accumulation (expression on minus off): 0.89 (0.19 to 1.5) pmol/mg protein
  Uptake ratio (transporter-expressing vs non-expressing cells): 1.2 (1.1 to 1.3)
